Measured values published in patent US20190185499A1, “Novel Compounds” (Colgate-Palmolive Company, priority 2017, published 2019).

Test: Lack of precipitate formation in aqueous solution
Format: physicochemical
Settings: ~5% concentration solution in water; after three months following its preparation
Experimental: 3.220 g of sodium ascorbyl phosphate is dissolved into 100 mL water and then 1.567 g of SnF2 is added. The mixture is stirred into completely solubilized and heat at 60 C for one hour. The solution is directly analyzed by 13C-NMR and diluted into 5000 ppm and analyzed by LC-MS.
In one aspect, a solution of ˜5% concentration of stannous ascorbyl phosphate is prepared as described in the above examples.

Substance: stannous ascorbyl phosphate
- formation of an observable precipitate: will not form an observable precipitate
